Test results reported in US7897620B2, “Methods of using anti-inflammatory compounds” (Cambridge Enterprise Limited, priority 2007, dated 2011).
Read-outs that look alike come from different tables or passages of the source. Marks after values point to notes of the source that are not given here.

Experiments:
[1] = Distribution of compounds into tissues and unchanged parent in urine 24 hrs after a single oral dose; format: in vivo; settings: rat; for concentration at 24 h: 24 hrs after single oral dose 3 mg/kg in 1% CMC, nd = not detected, LLOQ 2.4 ng/g
Method: Urine was collected from rats exposed to a single oral dose (3 mg/kg in 1% CMC) of each compound over a 24 hour period in metabolic cages. The pooled urine sample was then subjected to full scan mass spectral analysis, using the same LC-MS conditions as described in example 1 above. Further MS-MS analysis of the product ions was then performed, and likely fragmentations/re-arrangements assigned from the publicly available Metabolite ID database.
To provide a quantitative estimate of the degree of metabolism suffered by each of the compounds tested, the amount of unchanged parent compound in urine was measured using the same validated LC-MS assay described in example 1, using (S)-3-(2′,2′-dimethylpropanoylamino)-caprolactam as an internal standard. In addition, the level of compounds in various target tissues was also determined.

[2] = system: S. Typhinurium (TA 102, TA98 and TA 100); assay: AMES test, revertant colony formation; format: cell-based; settings: for Revertant colony formation TA98 + S9: TA98 with S9, top dose 5 mg/ml; for Revertant colony formation TA98: TA98 without S9, top dose 5 mg/ml; for Revertant colony formation TA100 + S9: TA100 with S9 rat liver microsomal system, top dose 5 mg/ml; for Revertant colony formation TA100: TA100 without S9, top dose 5 mg/ml; for Revertant colony formation TA102 + S9: TA102 with S9, top dose 5 mg/ml; for Revertant colony formation TA102: TA102 without S9, top dose 5 mg/ml
Method: The five compounds were subjected to a standard AMES test to assess likely genotoxicity. Three His-auxotroph strains of S. Typhinurium (TA 102, TA98 and TA 100) were treated with each of the compounds at 5 concentrations (up to 5 mg/ml) in the presence and absence of S9 rat liver microsomal metabolising system. The number of revertant colonies was then determined by plating on trace-His minimal media.

[3] = system: target receptor (site of specific interaction of BN83250) (Homo sapiens); assay: Competition for specific binding of [3H]-BN83250 to human myelomonocytic cell line; settings: competition binding curve, non-linear modelling
Method: The general pharmacology of the five compounds was assessed, both against the specific target receptor, and against a wide variety of other receptors, many related in structure to the target receptor. Specific binding to the target receptor was assessed by competition for the binding of [^3H]-BN83250 (BN83250 is (S)-3-(2′,2′-dimethyldodecanoylamino)-caprolactam; Fox et al. J Med Chem. […]; 48(3):867-74; an agent known to bind to the same target receptor as the lactam BSCIs disclosed here). Binding to non-target receptors was assessed by competition for the binding of various specific radioligands for other receptors which are well known in the art.
For specific binding the human myelomonocytic cell line was resuspended in binding buffer (20 mM HEPES, 150 mM NaCl, pH 7.4; 10^6 cells per reaction) at 4° C. in the presence of 10 nM [^3]-BN83250 (from 1 μM stock in 100% ethanol; 30 Ci/mmol) and various competitors (1% DMSO maximum vehicle concentration). Reactions were incubated for 2 hours on ice, then filtered through GF/C filters pre-soaked in 0.5% polyethyeneimine. Unbound material was washed away with 5×5 ml ice cold washing buffer (20 mM HEPES, 150 mM NaCl, pH 7.4) under a slow vacuum.
Competition for the specific [^3H]-BN83250 with compounds (I′), (II) and (V) was then determined at various concentrations from 1 μM to 10 μM. Compounds (III) and (IV) were not examined in these experiments.
Non-linear modelling was then applied to the competition binding curves for the various compounds, in order to compare their properties as agents binding to the target receptor (defined as the site of specific interaction of BN83250).

[4] = system: C5a induced neutrophil migration; assay: ChemoTx transwell migration assay, C5a induced migration of neutrophils (non-chemokine chemoattractant); format: cell-based; settings: highest concentration tested 1 μM, read-out: ED50 C5a neutrophils
Method: In principle, this assay consists of two chambers separated by a porous membrane. The chemoattractant is placed in the lower compartment and the cells are placed in the upper compartment. After incubation for a period at 37° C. the cells move towards the chemoattractant, and the number of cells in the lower compartment is proportional to the chemoattractant activity (relative to a series of controls).
Next, the chemoattractant solution to be placed in the lower compartment is prepared. For example, MCP-1 is diluted in GBSS+BSA to give a final concentration of 25 ng/ml. This is divided into two pots, as for the cell suspension. To one pot, the test compound is added to the same final concentration as was added to the cell suspension, while to the other pot an equal volume of GBSS+BSA plus vehicle as appropriate (e,g. not more than 1% DMSO) is added. Alternatively, other chemokines may be used (SDF-1α at 7.5 ng/ml; RANTES at 50 ng/ml; IL-8 at 10 ng/ml using neutrophils as the target cell population). In each case it is important to determine (in a separate experiment) the concentration of each chemokine which causes maximal stimulation of migration of the chosen target leukocyte population. […]
The number of cells migrated into the lower chamber under each condition can then be determined by a number of methods, including direct counting, labelling with fluorescent or radioactive markers or through the use of a vital dye. […] 3 μl of stock MTT solution are added to each well, and then the plate is incubated at 37° C. for 1-2 hours during which time dehydrogenase enzymes within the cells convert the soluble MTT to an insoluble blue formazan product that can be quantified spectrophotometrically. […]
At the end of this incubation, the liquid is carefully removed from the lower chambers, taking care not to disturb the precipitated formazan product. After allowing to air dry briefly, 20 μl of DMSO is added to each lower chamber to solubilise the blue dye, and absorbance at 595 nm is determined using a 96-well plate reader. […]

target receptor (site of specific interaction of BN83250) (Homo sapiens), sequence (P30874 whole entry): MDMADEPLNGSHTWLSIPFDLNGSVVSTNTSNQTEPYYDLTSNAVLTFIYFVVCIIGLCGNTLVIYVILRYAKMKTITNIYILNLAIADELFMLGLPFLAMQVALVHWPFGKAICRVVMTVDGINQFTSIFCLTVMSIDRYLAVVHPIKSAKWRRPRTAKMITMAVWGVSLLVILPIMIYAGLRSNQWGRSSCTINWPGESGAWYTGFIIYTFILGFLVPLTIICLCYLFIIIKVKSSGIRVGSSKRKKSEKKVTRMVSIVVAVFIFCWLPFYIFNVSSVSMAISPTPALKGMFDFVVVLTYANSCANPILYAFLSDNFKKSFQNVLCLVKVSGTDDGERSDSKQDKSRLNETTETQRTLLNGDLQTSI

CC(C)(C)S(=O)(=O)N[C@H]1CCCCNC1=O [(IV), 3-(1′,1′-dimethylethylsulfonylamino)-caprolactam]
fraction of the injected dose recovered unchanged in urine ([1]; 24 hrs, single oral dose 3 mg/kg): less than 10%
Revertant colony formation TA98 + S9 [2]: 0.90
Revertant colony formation TA98 [2]: 0.82
Revertant colony formation TA100 + S9 [2]: 0.90
Revertant colony formation TA100 [2]: 0.89
Revertant colony formation TA102 + S9 [2]: 0.88
Revertant colony formation TA102 [2]: 0.85

O=C1NCCCC[C@@H]1NC(=O)C12CC3CC(CC(O)(C3)C1)C2 [(V), 3-(3′-hydroxyadamantyl-1-carbonylamino)-caprolactam]
Revertant colony formation TA98 + S9 [2]: 0.91
Revertant colony formation TA98 [2]: 0.96
Revertant colony formation TA100 + S9 [2]: 0.88
Revertant colony formation TA100 [2]: 0.78
Revertant colony formation TA102 + S9 [2]: 1.09
Revertant colony formation TA102 [2]: 0.93
Hill slope [3]: −0.5
EC50 [4]: > 1000 nM

O=C1NCCCC[C@@H]1NC(=O)C12CC3CC(CC(C3)C1)C2 [(II), 3-(adamantane-1-carbonylamino)-caprolactam]
Revertant colony formation TA98 + S9 [2]: 0.60*
Revertant colony formation TA98 [2]: 0.58*
Revertant colony formation TA100 + S9 [2]: 0.73
Revertant colony formation TA100 [2]: 0.59*
Revertant colony formation TA102 + S9 [2]: 0.93
Revertant colony formation TA102 [2]: 0.50*
Hill slope [3]: −0.5
EC50 [4]: > 1000 nM

CC(C)(C)C(=O)N[C@H]1CCCNC1=O [Compound (I′), 3-(2′,2′-dimethylpropanoylamino)-tetrahydropyridin-2-one]
concentration at 24 h ([1]; brain, read-out: Level of compound in Brain): 1.6 ng/g
concentration at 24 h ([1]; heart, read-out: Level of compound in Heart): 5.3 ng/g
concentration at 24 h ([1]; kidney, read-out: Level of compound in Kidney): 5.1 ng/g
concentration at 24 h ([1]; liver, read-out: Level of compound in Liver): 3.6 ng/g
concentration at 24 h ([1]; lung, read-out: Level of compound in Lung): 21.9 ng/g
concentration at 24 h ([1]; muscle, read-out: Level of compound in Muscle): 3.1 ng/g
Revertant colony formation TA98 + S9 [2]: 1.23
Revertant colony formation TA98 [2]: 2.00**
Revertant colony formation TA100 + S9 [2]: 0.95
Revertant colony formation TA100 [2]: 0.97
Revertant colony formation TA102 + S9 [2]: 0.93
Revertant colony formation TA102 [2]: 0.82
Hill slope [3]: −1.0
EC50 [4]: > 1000 nM
